The record followed here is US20240083861A1, “HSD17B13 INHIBITORS AND USES THEREOF” (FL2022-001, Inc., priority 2020, published 2024).

This assay concerns the target T1, Recombinant human HSD17B13 enzyme (Homo sapiens, UniProt Q7Z5P4).
T1 sequence (Q7Z5P4 20-300): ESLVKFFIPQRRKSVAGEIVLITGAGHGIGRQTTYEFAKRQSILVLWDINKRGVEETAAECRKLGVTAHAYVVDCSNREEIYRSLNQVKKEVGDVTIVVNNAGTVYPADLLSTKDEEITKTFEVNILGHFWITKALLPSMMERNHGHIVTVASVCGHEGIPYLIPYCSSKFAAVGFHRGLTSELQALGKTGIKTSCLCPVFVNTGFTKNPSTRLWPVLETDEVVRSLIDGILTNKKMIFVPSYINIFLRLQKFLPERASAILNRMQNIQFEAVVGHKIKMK
Description: HSD17b13 NAD(P)H-Glo biochemical assay. As to conditions: 50 uM estradiol, 1 mM NAD+, NAD(P)H-Glo luminescence; read-out: HSD17β13 IC50. The gist of the method: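 Recombinant human HSD17B13 in 20 mM Tris pH7.4 with 0.002% Tween-20 and 0.02% BSA was preincubated with inhibitor for 20 minutes at RT. The reaction ran 3 hours at 37° C with 50 uM estradiol and 1 mM NAD+ (final). NADH formed was detected by NAD(P)H-Glo luminescence after 1 hour at RT.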

In the case of `Cn1nc(-c2cc(C(F)(F)F)c(F)c(O)c2F)c2cnc(N3C[C@H]4CC[C@@H](C3)O4)cc21` [Compound 9.90, 3-(6-(cis-8-Oxa-3-azabicyclo[3.2.1]octan-3-yl)-1-methyl-1H-pyrazolo[4,3-c]pyridin-3-yl)-2,6-difluoro-5-(trifluoromethyl)phenol], the IC50 was less than 100 nM.

As for `Cn1nc(-c2cc(C(F)(F)F)c(F)c(O)c2F)c2cnc(N3CCN(c4ccccc4)C(=O)C3)cc21` [Compound 9.91, 4-(3-(2,4-Difluoro-3-hydroxy-5-(trifluoromethyl)phenyl)-1-methyl-1H-pyrazolo[4,3-c]pyridin-6-yl)-1-phenylpiperazin-2-one], the IC50 is less than 100 nM.

In the case of `Cn1nc(-c2cc(C(F)(F)F)c(F)c(O)c2F)c2cnc(N3CCNC(=O)C3)cc21` [Compound 9.92, 4-(3-(2,4-Difluoro-3-hydroxy-5-(trifluoromethyl)phenyl)-1-methyl-1H-pyrazolo[4,3-c]pyridin-6-yl)piperazin-2-one], the 50% inhibitory concentration (IC50) was 100 to 1000 nM.

As to `COC12CC(CN(c3cc4c(cn3)c(-c3cc(C(F)(F)F)c(F)c(O)c3F)nn4C)C1)C2` [Compound 9.93, 2,6-Difluoro-3-(6-(1-methoxy-3-azabicyclo[3.1.1]heptan-3-yl)-1-methyl-1H-pyrazolo[4,3-c]pyridin-3-yl)-5-(trifluoromethyl)phenol], the half-inhibitory concentration (IC50) is less than 100 nM.

Consider `Cn1nc(-c2cc(C(F)(F)F)c(F)c(O)c2F)c2cnc(NC3CCOCC3)cc21` [Compound 9.94, 2,6-Difluoro-3-(1-methyl-6-((tetrahydro-2H-pyran-4-yl)amino)-1H-pyrazolo[4,3-c]pyridin-3-yl)-5-(trifluoromethyl)phenol], for which the IC50 is less than 100 nM.

With `CC1COC2(CCC2)CN1c1cc2c(cn1)c(-c1cc(C(F)(F)F)c(F)c(O)c1F)nn2C` (stereo not drawn) [Compound 9.95, 2,6-Difluoro-3-(1-methyl-6-(7-methyl-5-oxa-8-azaspiro[3.5]nonan-8-yl)-1H-pyrazolo[4,3-c]pyridin-3-yl)-5-(trifluoromethyl)phenol], the IC50 was less than 100 nM.

Regarding `CN1CCN(c2cc3c(cn2)c(-c2cc(C(F)(F)F)c(F)c(O)c2F)nn3C)C2(CCC2)C1` [Compound 9.96, 2,6-Difluoro-3-(1-methyl-6-(8-methyl-5,8-diazaspiro[3.5]nonan-5-yl)-1H-pyrazolo[4,3-c]pyridin-3-yl)-5-(trifluoromethyl)phenol], the IC50 is less than 100 nM.

For `Cn1nc(-c2cc(C(F)(F)F)c(F)c(O)c2F)c2cnc(N3CCOC(CO)C3)cc21` (stereo not drawn) [Compound 9.97, 2,6-Difluoro-3-(6-(2-(hydroxymethyl)morpholino)-1-methyl-1H-pyrazolo[4,3-c]pyridin-3-yl)-5-(trifluoromethyl)phenol], the IC50 was in the range of 100 to 1000 nM.

On to `COCC1(Nc2cc3c(cn2)c(-c2cc(C(F)(F)F)c(F)c(O)c2F)nn3C)CCC1` [Compound 9.98, 2,6-Difluoro-3-(6-((1-(methoxymethyl)cyclobutyl)amino)-1-methyl-1H-pyrazolo[4,3-c]pyridin-3-yl)-5-(trifluoromethyl)phenol], for which the IC50 is less than 100 nM.

With `Cn1nc(-c2cc(C(F)(F)F)c(F)c(O)c2F)c2cnc(N3CCCC34CCOCC4)cc21` [Compound 9.99, 2,6-Difluoro-3-(1-methyl-6-(8-oxa-1-azaspiro[4.5]decan-1-yl)-1H-pyrazolo[4,3-c]pyridin-3-yl)-5-(trifluoromethyl)phenol], the IC50 is less than 100 nM.

Consider `Cn1nc(-c2cc(C(F)(F)F)c(F)c(O)c2F)c2cnc(N3[C@@H]4CNC[C@H]3COC4)cc21` [Compound 9.100, 3-(6-(cis-3-Oxa-7,9-diazabicyclo[3.3.1]nonan-9-yl)-1-methyl-1H-pyrazolo[4,3-c]pyridin-3-yl)-2,6-difluoro-5-(trifluoromethyl)phenol], for which the IC50 lay within 100 to 1000 nM.

For the molecule `Cn1nc(-c2cc(C(F)(F)F)c(F)c(O)c2F)c2cnc(N3CCOCC3=O)cc21` [Compound 9.101, 4-(3-(2,4-Difluoro-3-hydroxy-5-(trifluoromethyl)phenyl)-1-methyl-1H-pyrazolo[4,3-c]pyridin-6-yl)morpholin-3-one], the IC50 was 100 to 1000 nM.
